Test results: patent publication US4430355A, “Condensed isothiazolo-3 (2H)-one-1-1-dioxides” (priority 1977, dated 1984)
Where two headings read alike, the source gives them in different places.

Assays:
mouse = assay: Orienting acute toxicity, oral, mouse; format: in vivo; conditions: 6 animals
Procedure: The acute toxicity was determined after oral administration to male and female mice and to male and female rats. The substances were given in an aqueous solution or as a suspension in tylose.

[1] = Evaluation of taste quality
Excerpt: They often have a side-taste or after-taste. Novel compounds A to F are, however, characterized by a very pure sweet taste.

[2] = Determination of the relative sweetening power in comparison to saccharose (taste testers, 3% saccharose solution)
Excerpt: The relative sweetening power (often also defined as degree of sweetness) of sweetening agents in comparison to saccharose (cane sugar) varies with the concentrations within wide limits. Thus, in the usual concentrations (corresponding to a 2-10% solution of saccharose) the relative sweetening power of saccharin varies from 200 to 700. Therefore, for the determination of the relative sweetening power of the above-mentioned compounds a 3% aqueous solution of saccharose was always used for comparison.
The further determination of the relative sweetening power was continued according to the methods of R. Pauli [Chemiker Zeitung 44, 744 (1920)] and T. Paul [Chemiker-Zeitung 45 38 (1921)]. Each test series was tested by 4 taste testers.

[3] = Determination of the threshold concentration (taste testers, Schutz and Pilgrim method); set-up: key: mean of 5 testers; 0 = not sweet, 3 = very sweet
Procedure: From novel compounds A, B, C, D, E and F and from known comparison compounds U, V and W aqueous solutions in concentrations of 1:12500, 1:25000, 1:50000, 1:100000 and 1:200000 were prepared and evaluated by each of 5 taste testers according to the following criteria: Very sweet (=3 points); medium sweet (=2 points), slightly sweet (=1 point) and not sweet (=0 point). The tests were carried out according to the method of H. G. Schutz and F. J. Pilgrim [Food Research 22, 206 (1957)]. The dilution with perceptible sweetness was defined as the concentration at which the average value reached the evaluation points 1.0 or higher.

[4] = tested on: Escherichia coli WP 2 (P); assay: AMES-system, test for mutagenic effects, Escherichia coli; format: cell-based
Procedure: In order to show the whole spectrum of induced molecular DNA-damages (base substitutions, frame-shift mutations, deletions) the auxotrophic bacterial strains Salmonella typhimurium TA 98, TA 100 and Escherichia coli WP 2 (P) were used as genetic indicators.
The test for all microorganisms were carried out in a way such that the influence of a microsomal enzyme system, together with the corresponding co-factors, could be tested with regard to the test substance, and to determine the differences in enzyme induction. The tests were performed without an activating system and in the presence of an activating system. […] From the S-9 induced fraction, 3 different concentration levels were tested.

[5] = tested on: Salmonella typhimurium TA 98, TA 100, TA 1535, TA 1537, TA 1538; assay: AMES-system, test for mutagenic effects, Salmonella typhimurium; format: cell-based
Procedure: Compounds C and D were tested in the AMES-system [Mutation Research 31, 347-364 (1975)] with regard to their mutagenic properties. In order to show the whole spectrum of induced molecular DNA-damages (base substitutions, frame-shift mutations, deletions) the auxotrophic bacterial strains Salmonella typhimurium TA 98, TA 100 and Escherichia coli WP 2 (P) were used as genetic indicators. The strains Salmonella typhimurium TA 1535, TA 1537 and TA 1538 were additionally used in the test of compound C.
The test for all microorganisms were carried out in a way such that the influence of a microsomal enzyme system, together with the corresponding co-factors, could be tested with regard to the test substance, and to determine the differences in enzyme induction. The tests were performed without an activating system and in the presence of an activating system. For the in vitro-activation, S-9 supernatants (fraction of the endoplasmatic reticulum) of normal, i.e. not pre-treated rats and of Aroclor 1254 (500 mg/kg) induced rats were used. From the S-9 induced fraction, 3 different concentration levels were tested.
(§1) The substance concentrations of compound C were 0.1 and 0.5 mgm/plate and the concentrations of compound D were 5, 10, 15 and 20 mg/plate.

microorganism growth = assay: Series dilution essay, inhibition of the microorganism growth; format: cell-based; conditions: highest dosages (C 0.5 mgm/plate, D 20 mg/plate)
Procedure: as §1

[6] = higher dosage levels; cited from earlier work
[7] = value given on page 6 of German Offenlegungsschrift 2,534,689; cited from earlier work
[8] = compared with 3% aqueous solution of saccharose

Compound: Cc1cc2c(o1)S(=O)(=O)NC2=O [A, 5-Methyl-furo[3,2-d]isothiazole-3-(2H)-one-1,1-dioxide]
- Animals which died within the observation time, 1 day (mouse; 1000 mgm/kg oral): 0 animals
- Animals which died within the observation time, 7 days (mouse; 1000 mgm/kg oral): 0 animals
- taste quality compared with saccharose (cane sugar) [1]: achieve the taste quality of saccharose
- Relative Sweetening Power (Saccharose = 1) [2, 8]: 150
- Average Value of Evaluation Points ([3]; concentration 1:12500): 1.4
- Average Value of Evaluation Points ([3]; concentration 1:25000): 0.2

Compound: Cc1cc2c(s1)S(=O)(=O)NC2=O [B, 5-Methyl-thieno[3,2-d]isothiazole-3(2H)-one-1,1-dioxide]
- Animals which died within the observation time, 1 day (mouse; 5000 mgm/kg oral): 0 animals
- Animals which died within the observation time, 7 days (mouse; 5000 mgm/kg oral): 0 animals
- Relative Sweetening Power (Saccharose = 1) [2, 8]: 550
- Average Value of Evaluation Points ([3]; concentration 1:25000): 2.2
- Average Value of Evaluation Points ([3]; concentration 1:50000): 1.4
- Average Value of Evaluation Points ([3]; concentration 1:100000): 0.2

Compound: Cc1cc2c(s1)S(=O)(=O)NC2=O.[Ca] [D, 5-Methyl-thieno[3,2-d]isothiazole-3(2H)-one-1,1-dioxide calcium salt]
- Animals which died within the observation time, 1 day (mouse; 5000 mgm/kg oral): 0 animals
- Animals which died within the observation time, 7 days (mouse; 5000 mgm/kg oral): 0 animals
- release of base substitutions ([4]; E. coli WP2 (P)): do not release base substitutions
- increase in the spontaneous mutation rate ([4]; E. coli WP 2 (P), C 0.1 and 0.5 mgm/plate, D 5-20 mg/plate, with and without activating system): did not lead to an increase
- Relative Sweetening Power (Saccharose = 1) [2, 8]: 500
- release of base substitutions ([5]; S. typhimurium TA 1535, TA 100): do not release base substitutions
- release of frame-shift mutations ([5]; S. typhimurium TA 1537, TA 1538, TA 98): do not release
- increase in the spontaneous mutation rate ([5]; Salmonella strains, C 0.1 and 0.5 mgm/plate, D 5-20 mg/plate, with and without activating system): did not lead to an increase
- colonies counted on the substance plates ([5]; all test strains): within the spontaneous range
- effect of the enzyme induction and of the activating fraction on the reverse mutation rate ([5]; all tested strains, S-9 of normal and Aroclor 1254 induced rats): not detectable
- mutagenic potential ([5]; conclusion over all tested strains): do not indicate a mutagenic potential
- Average Value of Evaluation Points ([3]; concentration 1:25000): 1.8
- Average Value of Evaluation Points ([3]; concentration 1:50000): 1.0
- Average Value of Evaluation Points ([3]; concentration 1:100000): 0.0
- inhibition of the microorganism growth (microorganism growth): did not show any inhibition

Compound: Cc1sc2c(c1C)C(=O)NS2(=O)=O [E, 4,5-Dimethyl-thieno[3,2-d]isothiazole-3(2H)-one-1,1-dioxide]
- Animals which died within the observation time, 1 day (mouse; 1000 mgm/kg oral): 0 animals
- Animals which died within the observation time, 7 days (mouse; 1000 mgm/kg oral): 0 animals
- Relative Sweetening Power (Saccharose = 1) [2, 8]: 1050
- Average Value of Evaluation Points ([3]; concentration 1:50000): 2.2
- Average Value of Evaluation Points ([3]; concentration 1:100000): 1.6
- Average Value of Evaluation Points ([3]; concentration 1:200000): 0.4

Compound: Cc1sc2c(c1C)C(=O)NS2(=O)=O.[Na] [F, 4,5-Dimethyl-thieno[3,2-d]isothiazole-3(2H)-one-1,1-dioxide sodium salt]
- Relative Sweetening Power (Saccharose = 1) [2, 8]: 1000
- Average Value of Evaluation Points ([3]; concentration 1:50000): 2.0
- Average Value of Evaluation Points ([3]; concentration 1:100000): 1.4
- Average Value of Evaluation Points ([3]; concentration 1:200000): 0.2

Compound: O=S(=O)(O)NC1CCCCC1 [U, Cyclamate, reference compound]
- safety as sweetening agent [6]: not entirely safe
- Relative Sweetening Power (Saccharose = 1) [2]: 60
- Average Value of Evaluation Points ([3]; concentration 1:12500): 0.4

Compound: O=C1NS(=O)(=O)c2ccccc21.[Na] [W, Saccharin sodium, reference compound]
- Relative Sweetening Power (Saccharose = 1) [2, 8]: 550
- Average Value of Evaluation Points ([3]; concentration 1:25000): 2.2
- Average Value of Evaluation Points ([3]; concentration 1:50000): 1.2
- Average Value of Evaluation Points ([3]; concentration 1:100000): 0.0

Compound: O=C1NS(=O)(=O)c2sccc21 [X, Thieno[3,2-d]isothiazole-3(2H)-one-1,1-dioxide]
- Relative Sweetening Power (Saccharose = 1) [7]: 350
